Laboratory results taken from patent publication US20150125893A1, “TRANSPORTER BIOSENSORS” (Carnegie Institute of Washington, priority 2013, published 2015).

How the values were obtained:
[1] = system: OzTrac-MSL10; test: OzTrac-MSL10 FRET osmosensor expressed in yeast cells, response to osmolytes; assay type: cell-based, Arabidopsis thaliana; conditions: for FRET emission ratio: addition of 1M osmolyte; for FRET emission ratio / FRET response to osmolyte: yeast cells; for FRET response to osmolyte: hyper-osmotic stress, NaCl at 1M
Text: Fusion proteins comprising the mechanisensitive channel small conductance-like 10 (AtMSL10) were constructed, potentially creating an osmosensor. […] This t9AFP-AtMSL10-t7TFPt9 protein is named as OzTrac-MSL10. […] Upon treatment of 1 M NaCl, which induces hyper-osmotic stress, AtMSL10 will undergo a conformational change into the closed state which causes the FRET pairs to come closer, resulting in a higher FRET.
The OzTrac-MSL10 FRET sensor can detect a range of osmolarity concentration changes. […] The calculation of the dissociation constant is around 0.5 M for NaCl and KCl, and around 1M for […] and […].

[2] = system: NRT1.1 T101A mutant fusion protein; test: Nitrate sensor fluorescence response in yeast, NRT1.1 T101A low affinity mutant fusion protein; assay type: cell-based, Arabidopsis thaliana
Method: Yeast strains used in this study were BJ5465 [MATa, ura3-52, trp1, leu2Δ1, his3Δ200, pep4::HIS3, prb1Δ1.6R, cant GAL+] obtained from Yeast Genetic Stock Center (University of California, Berkeley, Calif.). Yeast was transformed using the lithium acetate method and selected on solid YNB (minimal yeast medium without nitrogen; Difco) supplemented with 2% glucose and -Ura DropOut (Clontech). Single colonies were grown in 5 mL liquid YNB supplemented with 2% glucose and -Ura DropOut under agitation (220 rpm) at 30° C. until OD600 nm˜0.8 was reached. The liquid cultures were subcultured by diluted to OD600 nm 0.01 in the same liquid medium and conditions at 30° C. until OD600 nm 0.2 was reached. […] Fluorescence was measured by a fluorescence plate reader (M1000, TECAN), in bottom reading mode using a 7.5 nm bandwidth for both excitation and emission. To measure fluorescence response to substrate addition, 100 μL of substrate (dissolved in MES buffer as 500% stock solution) were added to 100 μL of cells in a 96-well plate (Greiner). Fluorescence from cultures harboring yeast expression vectors pDRFlip30, 39, and 42 was measured as emission at λem=470-570 nm using excitation at λexc=428 nm and fluorescence using yeast expression vector pDRFlip34 and 35 was measured as emission at λem=470-570 nm using excitation at λexc=440 nm.

[3] = system: CHL1 nitrate transporter (AFPt9 in central loop, Teal-t9 in loop between helices 10 and 11)
Text: (§1) All transporter and sensor constructs were inserted in the yeast expression vector pDRFlip30, 34, 35, 39, 42-GW. The details of the vectors are as follows: pDRFlip30 using pair of N-terminal fluorescent protein Aphordite t9 (AFPt9), 9 amino acids truncated of C-term of AFP, and C-terminal fluorescent protein monomeric Cerulean (mCer); pDRFlip 39 using pair of N-terminally fused fluorescent protein enhanced dimer Aphrodite t9 (edAFPt9) and C-terminal fluorescent protein enhanced dimer, 7 amino acids and 9 amino acids truncated of N-term and C-term of eCyan (t7.ed.eCFPt9), respectively; pDRFlip 42 using pair of N-terminal fluorescent protein Citrine and C-terminal fluorescent protein mCer; pDRFlip 34 using pair of N-terminal fluorescent protein AFPt9 and C-terminal fluorescent protein t7.Teal.t9 (t7.TFP.t9), and pDRFlip 35 using pair of N-terminal fluorescent protein AFPt9 and C-terminal fluorescent protein mTFPt9. All vectors contained […] replication origin, GATEWAY™ cassette-attR1-CmR-ccdB gene-attR2 sequence, which is between the pair of fluorescent proteins, a PMA1 promoter fragment, an ADH terminator, different pairs of fluorescent proteins, and the URA cassette for selection in yeast. The full length ORF of NRT1.1 and different mutants of NRT1.1, such as T101A, T101D, P492L from Arabidopsis (At1g12110) in TOPO GATEWAY™ entry vector were used to prepare the nitrate sensors of the present invention. The yeast vector harboring the constructs was then created by the GATEWAY™ LR reaction between different forms of pTOPO-NRT and different pDRFlip-GWs, following manufacturer's instructions..
(§2) Yeast strains used in this study were BJ5465 [MATa, ura3-52, trp1, leu2Δ1, his3Δ200, pep4::HIS3, prb1Δ1.6R, cant GAL+] obtained from Yeast Genetic Stock Center (University of California, Berkeley, Calif.). Yeast was transformed using the lithium acetate method and selected on solid YNB (minimal yeast medium without nitrogen; Difco) supplemented with 2% glucose and -Ura DropOut (Clontech).

[4] = system: pDRFlip302 (NRT1.1 with AFPt9 and mCerulean)
Text: as §1, §2

[5] = system: CHL1 nitrate transporter (Aphrodite-t9 N-terminus, Teal-t9 C-terminus)
Text: as §1, §2

Structure (SMILES)	FRET emission ratio [1]	FRET response to osmolyte [1]	other results
[Cl-].[K+] [KCl, potassium chloride]	higher FRET emission ratio	increased the FRET	
O=[N+]([O-])[O-].[K+] [KNO3]			sensor response ([2]; high levels of KNO3): only responds to addition of high levels; sensor response ([2]; low levels of KNO3): does not respond
[Cl-].[Na+] [NaCl, sodium chloride]	higher FRET emission ratio	dramatic FRET change	emission spectrum change ([1]; 1M NaCl, excitation at 440 nm): decrease in fluorescence intensity of donor and increase of acceptor; FRET change with serial concentrations ([1]; serial NaCl concentrations (mM), excitation at 440 nm): concentration-dependent FRET changes
OCC(O)CO [glycerol]	higher FRET emission ratio	increased the FRET	
O=[N+]([O-])O [nitrate]			change in FRET on addition of nitrate [3]: does not induce a change in FRET; change in FRET on addition of nitrate [4]: does not induce a change in FRET; change in FRET on addition of nitrate [5]: does not induce a change in FRET
OC[C@@H](O)[C@@H](O)[C@H](O)[C@@H](O)CO [sorbitol]	higher FRET emission ratio	increased the FRET	
